This note sets out measurements from patent US4356185A, “Thiazoles” (John Wyeth & Brother Limited, priority 1980, dated 1982).

This assay deals with ear edema (croton oil irritant mixture). Nature of the assay: anti-inflammatory activity against croton oil-induced ear edema (based on Tonelli et al), topical. The following applies: right ear, in irritant mixture, 6 hours. It is filed as in vivo, Sprague-Dawley female rats. How it is done:
Compounds of formula I were tested for anti-inflammatory activity by the following procedure based on Tonelli et al, Endocrinology 77, 625 (1965):
Sprague-Dawley female rats, weighing 60 to 70 grams, are used in groups of 10. Ear edema is induced by inuncting both sides of the ear with an irritant mixture. This mixture containing 1% croton oil, 20% pyridine, 5% water and 74% diethyl ether, with or without test compound, is applied only once and only to the right ear. Six hours later the animals are sacrificed; a 9 mm diameter portion of both ears is punched out with a cork borer and weighed. The anti-inflammatory activity of the test agent is assessed by expressing the percent of the difference in average weight increase between the ears of the control groups and of the treated group. [formula]
Results found for representative compounds of formula I are tabulated below, together with results found in 3 tests for the preferred compound reported by Brown et al in J. Med. Chem.(loc-cit)namely 4-(p-chlorophenyl)-2-phenylthiazole-5-acetic acid (B): […]

Where “and” joins values, the source holds several entries; their conditions need not be identical. Equal values may be shown once.

On to `O=C(O)Cc1sc(-c2ccccc2)nc1-c1ccc(Cl)cc1` [4-(p-chlorophenyl)-2-phenylthiazole-5-acetic acid, reference compound], for which the % Inhibition (in general, the drop in the measured response relative to a control, in per cent) (dose 2.5 mg) is 93% and 79% and 89%; the “% Inhibition” value (dose 5 mg) was 92% and 93%.

In the case of `CCCCC(=O)Oc1ccc(-c2nc(-c3ccc(Cl)cc3)c(CC(=O)O)s2)cc1` [R = COC4 H9, 4-(4-Chlorophenyl)-2-(4-Valeryloxyphenyl)thiazole-5-acetic acid], the “% Inhibition” value reads like this: (dose 50 μg) 41%; (dose 500 μg) 54%; (dose 2.5 mg) 71%; (dose 5 mg) 87%.

Turning to `CC(=O)Oc1ccc(-c2nc(-c3ccc(Cl)cc3)c(CC(=O)O)s2)cc1` [R = COCH3, 2-(4-Acetoxyphenyl)-4-(4-chlorophenyl)thiazole-5-acetic acid], the “% Inhibition” value (dose 50 μg) is reported as -14%, the “% Inhibition” value (dose 500 μg) amounted to 41%, the “% Inhibition” value (dose 2.5 mg) was 85% and the “% Inhibition” value (dose 5 mg) is given as 100%.
